The source made the active and inactive calls. No cut-off for these calls is given here.
What was measured:
[1] = Neuroprotective activity in mouse MN9D cells assessed as cell division at 0.04 to 0.16 uM after 72 hrs by DAPI staining (reference value: 100 +/- 4.15%); type: functional
Homo sapiens [2] = organism: Homo sapiens; assay: Induction of recombinant PP2A catalytic subunit (unknown origin) activity assessed as phosphate level using threonine-phosphopeptide at 5 uM
PC-12 = assay: Induction of PP2A catalytic subunit activity in rat PC12 cells assessed as phosphate level at 5 uM measured 30 to 120 mins; type: cell-based
MN9D [3] = assay: Neuroprotective activity in mouse MN9D cells assessed as blocking of TNF-alpha associated toxicity at 0.16 uM after 72 hrs by Trypan blue staining; type: functional, cell-based
MN9D [4] = assay: Induction of PP2A catalytic subunit activity in mouse MN9D cells assessed as phosphate level at 5 uM; type: cell-based
[5] = Neuroprotective activity in mouse MN9D cells assessed as stimulation of BDNF expression at 0.16 uM after 24 hrs; type: functional, cell-based
Homo sapiens [6] = organism: Homo sapiens; assay: Induction of recombinant PP2A catalytic subunit (unknown origin) activity assessed as phosphate level at 5 uM relative to control
[7] = Cytotoxicity against mouse MN9D cells assessed as metabolic activity at > 1.5 uM after 72 hrs by MTS assay; type: ADME, cell-based

SMILES	Activity [1] [%]	Activity (Homo sapiens [2])	Activity (PC-12)	inhibition (MN9D [3])	Activity (MN9D [4])	Activity [5]	fold change (FC) (Homo sapiens [6])	Activity [7]
CCCCCCCCc1ccc(CCC(N)(CO)CO)cc1 [FINGOLIMOD]	98	Active	Active	Active	Active	Active	4	Toxic
CCCCCCCCCCCCC/C=C/[C@H](O)[C@@H](CO)NC(C)=O	–	Active	–	–	–	–	8	–
CCCCCCCCc1ccc(CCC(CO)(CO)NC(=O)CC[P+](c2ccccc2)(c2ccccc2)c2ccccc2)cc1.[Br-]	101.37	–	–	Active	Active	Active	4	Toxic
CCCCCCCCCCCCC/C=C/[C@H](O)[C@@H](CO)NC(=O)CCCCCCCCC	–	inactive	–	–	–	–	–	–
CCCCCCCCc1ccc(CCC(CO)(CO)NC(C)=O)cc1	91.44	–	–	Active	Active	Active	8	Toxic
CCCCCCCCCCCCC/C=C/[C@H](O)[C@@H](CO)NC(=O)CCCCC	–	Active	–	–	–	–	–	–

Reference: ChEMBL document CHEMBL3352354, “Novel FTY720-Based Compounds Stimulate Neurotrophin Expression and Phosphatase Activity in Dopaminergic Cells” (ACS Med Chem Lett, 2014)
